Converted amounts (≈) assume the structure as drawn.

We go through 18 molecules from ChEMBL document CHEMBL6153082, “Macrocyclization as a Strategy for Kinetic Solubility Improvement: A Comparative Analysis of Matched Molecular Pairs” (J Med Chem, 2025).

Series [1] in a line: Solubility of compound at pH 7.4. It counts as physicochemical. Conditions: buffer.
The nature of series [2]: Efflux ratio in dog MDCK cells. It counts as ADME, cell-based, Canis lupus familiaris.
Series [3] in a line: Unbound fraction in mouse microsome incubated for 4 hrs by LC-MS/MS analysis. It counts as ADME. Particulars: microsomes.
A short description of series [4]: Lipophilicity, logD of the compound in n-octanol/aqueous at pH 7.4 incubated overnight by UPLC analysis. In kind it is physicochemical.
Series [5] can be described thus: Apparent permeability across apical to basolateral side in MDCK cells. It counts as ADME, cell-based, Canis lupus familiaris. Particulars: dog.
Series [6] is described as follows: Apparent permeability across basolateral to apical side in MDCK cells. In kind it is ADME, cell-based, Canis lupus familiaris. Particulars: dog.
Series [7] can be described thus: Metabolic stability in mouse liver microsomes assessed as half life in presence of NADPH incubated for 30 mins by LC-MS/MS analysis. In kind it is ADME, Microsome. On the technique in general: Liver microsomes are a subcellular fraction often used to study metabolism.
Series [8] can be described thus: Kinetic aqueous solubility of compound at pH 7.4 at 5 to 300 uM. Conditions: dose 5-300 µM, read-out: Kinetic_solubility. In kind it is physicochemical.
Series [9] can be described thus: Dissociation constant, pKa of the compound by potentiometric titration analysis. It counts as physicochemical.

By solubility is commonly meant the concentration that dissolves in the medium under given conditions. A high value points to a readily soluble substance. The fraction unbound is free concentration divided by total concentration. As usually defined, the logD is lipophilicity at a set pH, counting ionised and neutral species. Read a low logD as a more hydrophilic compound. As a reminder, the half-life is the time in which the quantity being followed falls by half. `CCOc1ccccc1C(=O)N1CCN(C2CCCC2)C[C@@H]1C(=O)NC[C@H]1CCCCO1` returned a solubility in [1] of 303 µM (≈ 134 µg/mL). For the same molecule, the Ratio in series [2] is 29. The molecule also came in with a fraction unbound at 4 h in [3] of 0.68. The molecule also registered a logD in series [4] of 2.5. Moreover, the Papp is listed as 32 10^-6 cm/s in series [5] and 50 10^-6 cm/s in [6]. Besides, in [7], the half-life stood at 120 min.
`COc1cc2cc(c1OC)OC/C=C/COC(=O)[C@@H]1CCCCN1C(=O)[C@H]2C1CCCCC1`: the solubility kinetic in series [8] was determined as 103 µM (≈ 47.1 µg/mL).
`C=CCOc1ccccc1CN(CC(=O)N1CCC(CC(=O)NC2CC2)CC1)C1CCN(C)CC1` gave a solubility in series [1] of 244 µM (≈ 118 µg/mL). For the same molecule, the Ratio in series [2] amounted to 2. Besides, the fraction unbound at 4 h in series [3] turned out to be 0.76. For the same molecule, the logD in [4] is 0.5. The Papp is listed as 1 10^-6 cm/s in series [5] and 11 10^-6 cm/s in series [6]. Moreover, the half-life in series [7] worked out at 120 min.
As usually defined, the efflux ratio is a quotient of directional permeabilities that is used to spot active efflux. One may read the Papp A→B as the apparent permeability from the apical to the basolateral side of a cell layer. A word on the Papp B→A: it is the apparent permeability from the basolateral to the apical side of a cell layer. With `CCC[C@H]1NC(=O)c2cccnc2OCCOCCN(C2CCCC2)CC2CCN(CC2)C1=O`, the concentration in solution in series [1] (solubility) was 303 µM (≈ 143 µg/mL). Further, the efflux ratio in [2] is 5.4. The pH-dependent lipophilicity (logD) in series [4] came out at 1.5. In addition, the Papp A→B in series [5] stood at 10 ×10⁻⁶ cm/s. Also, the Papp B→A in [6] was 56 ×10⁻⁶ cm/s. Also, in [7], the half-life stood at 7.4 min.
On to `CCCOC(=O)[C@@H]1CCCCN1C(=O)[C@H](c1cc(OC)c(OC)c(OC)c1)C1CCCCC1`, for which the solubility kinetic in series [8] is 45 µM (≈ 20.8 µg/mL).
As to `CCOc1ccccc1C(=O)N1CCN(C2CCCC2)C[C@@H]1C(=O)NC[C@@H]1CCCCO1`, in series [1], the concentration in solution (solubility) was 170 µM (≈ 75.4 µg/mL). For the same molecule, in [2], the Ratio is listed as 12. For the same molecule, the fraction unbound at 4 h in series [3] is 0.68. The logD in [4] was determined as 2.5. Besides, the Papp in series [5] is 29 10^-6 cm/s; in [6] it was 44 10^-6 cm/s. The half-life in series [7] turned out to be 1 min.
Consider `COc1cc2cc(OC)c1OCCCCOC(=O)[C@@H]1CCCCN1C(=O)[C@H]2C1CCCCC1`, for which the solubility kinetic in [8] turned out to be 137 µM (≈ 63 µg/mL).
On the same count and under the same terms, to `CCCc1cn(CCCOc2cc([C@@H](C(=O)N3CCCC[C@H]3C(=O)OC)C3CCCCC3)cc(OC)c2OC)nn1` belongs 65 µM (≈ 37.1 µg/mL).
`C=CCOc1ccccc1CN(CC(=O)N1CCC(CC(=O)NC2CC2)CC1)Cc1ccccc1`: in series [1], the solubility is 83.5 µM (≈ 39.7 µg/mL). Besides, the Ratio in series [2] was found to be 66. Besides, in series [3], the fraction unbound at 4 h was 0.57. For the same molecule, the logD in series [4] was determined as 3.8. For the same molecule, the Papp in [5] is 8 10^-6 cm/s; in series [6], 33 10^-6 cm/s. Further, in series [7], the half-life worked out at 1 min.
As to `CCC[C@@H](NC(=O)c1cccnc1OC)C(=O)N1CCC(CCN(CCOC)C2CCN(C)CC2)CC1`, the solubility in [1] was 303 µM (≈ 157 µg/mL). Besides, the Ratio in series [2] stood at 38. The molecule further returned a fraction unbound at 4 h in [3] of 0.77. The molecule also gave a logD in series [4] of 0.8. The Papp in [5] was 93 10^-6 cm/s; in series [6], 88 10^-6 cm/s. Besides, in [7], the half-life came to 103 min.
On to `C=CCOC(=O)[C@@H]1CCCCN1C(=O)[C@H](c1cc(OC)c(OC)c(OC)c1)C1CCCCC1`, for which the solubility kinetic in [8] was found to be 12 µM (≈ 5.51 µg/mL).
As to `C=CCOc1ccccc1CN(CC(=O)N1CCC(CC(=O)NC2CC2)CC1)C1CCCC1`, the solubility in series [1] was 192 µM (≈ 87.1 µg/mL). In addition, the Ratio in [2] was determined as 4. Further, in series [3], the fraction unbound at 4 h turned out to be 1. This molecule also displayed a logD in series [4] of 1.8. Also, the Papp in series [5] is reported as 3 10^-6 cm/s; in series [6], 68 10^-6 cm/s. Besides, the half-life in series [7] worked out at 5 min.
For orientation: pKa means the pH at which an ionisable group is half protonated. A low value points to a stronger acid or weaker base. As to `CCOc1ccccc1C(=O)N1CCN(Cc2ccccc2)C[C@@H]1C(=O)NC[C@@H]1CCCCO1`, the concentration in solution in series [1] (solubility) was 237 µM (≈ 110 µg/mL). Besides, the Ratio in [2] amounted to 21. The molecule further had a fraction unbound at 4 h in series [3] of 1. The molecule further gave a logD in [4] of 3.2. The results for the Papp in [5] and in [6] were 33 10^-6 cm/s and 49 10^-6 cm/s, respectively. The half-life in series [7] was 1 min. Also, in series [9], the pKa was found to be 7.4.
Regarding `COc1cc2cc(c1OC)O[C@@H](C)CCn1cc(nn1)CCCCOC(=O)[C@@H]1CCCCN1C(=O)[C@H]2C1CCCCC1`, the solubility kinetic in series [8] worked out at 100 µM (≈ 58.3 µg/mL).
`C=CCOc1ccccc1CN(CC(=O)N1CCC(CC(=O)NC2CC2)CC1)C(C)C`: the solubility in series [1] is 167 µM (≈ 71.4 µg/mL). For the same molecule, the Ratio in [2] is 2. The fraction unbound at 4 h in series [3] is 1. For the same molecule, in [4], the logD stood at 1. For the same molecule, the Papp in series [5] was 2 10^-6 cm/s; in series [6] it was 57 10^-6 cm/s. Further, the half-life in series [7] worked out at 16 min.
As to `CCCc1cn(CC[C@H](C)Oc2cc([C@@H](C(=O)N3CCCC[C@H]3C(=O)OC)C3CCCCC3)cc(OC)c2OC)nn1`, the solubility kinetic in [8] was found to be 65 µM (≈ 38 µg/mL).
As for `CCOc1ccccc1C(=O)N1CCN(Cc2ccccc2)C[C@@H]1C(=O)NC[C@H]1CCCCO1`, the solubility in series [1] was 287 µM (≈ 134 µg/mL). Also, the Ratio in [2] amounted to 69. Besides, the fraction unbound at 4 h in series [3] came to 1. The same molecule registered a logD in series [4] of 3.2. Moreover, the Papp in [5] was 32 10^-6 cm/s; in [6], 49 10^-6 cm/s. For the same molecule, the half-life in series [7] turned out to be 120 min. Besides, the pKa in series [9] worked out at 7.4.
As for `COc1cc2cc(c1OC)OCCCn1cc(nn1)CCCCOC(=O)[C@@H]1CCCCN1C(=O)[C@H]2C1CCCCC1`, the solubility kinetic in series [8] worked out at 100 µM (≈ 56.9 µg/mL).
